Values after ≈ are worked out from the molar mass of the structure shown.
Assays:
[1] = test system: HIV-1 (IIIB); experiment: HIV-1-induced cytopathicity in CEM cell cultures; type: cell-based, human immunodeficiency virus; details: human lymphocyte CEM cell cultures
[2] = test system: HIV-2 (ROD); type: cell-based, human immunodeficiency virus; details: HIV-induced cytopathicity, human lymphocyte CEM cell cultures
[3] = test system: HSV-1 (KOS); type: cell-based, herpes simplex virus; details: HSV-induced cytopathicity, human embryo fibroblast E6SM cell cultures
[4] = test system: HSV-2 (G); type: cell-based, herpes simplex virus; details: HSV-induced cytopathicity, human embryo fibroblast E6SM cell cultures
[5] = test system: VV; type: cell-based, vaccinia virus; details: VV-induced cytopathicity, human embryo fibroblast E6SM cell cultures
[6] = test system: CMV Davis, AD-169; experiment: CMV-induced plaque formation in HEL cells; type: cell-based, human cytomegalo virus; details: human embryonic lung HEL cells, day 7
[7] = test system: BVDV strain Pe515; experiment: anti-BVDV activity in MDBK cells (MTS method); type: cell-based, bovine viral diarrhea virus; details: for anti-viral activity against BVDV (in words): second set of screenings
Experimental: (§1) The compounds were also screened against flaviviruses. Due to the fact that there is no adequate in vitro assay to screen against HCV, we opted to screen against the bovine viral diarrhea virus (BVDV), as it shares many similarities with the hepatitis C virus. Antiviral activity was assessed using the Pe 515 strain of BVDV on Madin Darby bovine kidney cells (MDBK cells). Both antiviral activity and cytotoxicity was determined by means of the MTS method. The EC50 is the concentration required to reduce virus induced cytopathic effect by 50%. The MTC (minimal toxic concentration) was defined as the concentration that caused >=20% reduction in cell metabolism.

[8] = test system: MDBK cells; experiment: cytotoxicity in MDBK cells (MTS method); type: cell-based, bovine; details: minimal toxic concentration causing >=20% reduction in cell metabolism; highest concentration 100 μg/ml
Experimental: as §1

[9] = test system: CEM/0; details: human T-lymphocyte cells, proliferation
Excerpt: (§2) The compounds were also checked for anti-tumor activity via the proliferation of murine leukemia cells (L 1210/0), murine mammary carcinoma cells (FM3A) and human T-lymphocyte cells (Molt4/C8, CEM/0).

[10] = test system: FM3A/0; details: murine mammary carcinoma cells, proliferation
Excerpt: as §2

[11] = test system: L1210/0; details: murine leukemia cells, proliferation
Excerpt: as §2

[12] = test system: Molt4/C8; details: human T-lymphocyte cells, proliferation
Excerpt: as §2

[13] = test system: S. aureus ATCC 29213; experiment: antibacterial microdilution screening; type: cell-based, Staphylococcus aureus; details: 16 hours at 35° C., Mueller-Hinton broth
Experimental: (§3) Based on the NCCLS documents M7-A4, Vol. 17 No. 2, M27-A, Vol 17 No. 9 and M38-P, Vol 18 No. 13, a microdilution method for conducting the antibacterial and antifungal screenings was developed using a Bioscreen C Analyser (Labsystems, Finland), which is an automated reader-incubator. It measures growth continuously by vertical photometry (optical density), processes the data and provides a print-out of the results. For the bacteria we selected as primary target: Staphylococcus aureus ATCC29213, Enterococcus faecalisATCC 29212, Escherichia coli ATCC 25922 and Pseudomonas aeruginosa ATCC 27853. Candida albicans ATCC 24433 and Cryptococcus neoformans ATCC 90112 were selected as yeast targets. The dermatophyte Trichophyton mentagrophytes ATCC 9533 and the invasive mould Aspergillus fumigatus ATCC 2895 were selected as moulds. All parameters necessary for optimal incubation can be programmed in the Biolink-software (Labsystems, Finland). Incubation for all bacterial screenings was 16 hours at 35° C. The incubation parameters for the screenings against Candida and Cryptococcus were respectively 24 and 48 hours at 35° C., the invasive fungus Aspergillus fumigatus was incubated for 3 days at 30° C. and the dermatophyte T. mentagrophytes was incubated for 5 days at 30° C. As growth media for the bacteria cation adjusted Mueller-Hinton broth (Oxoid, Belgium) was used. A synthetic medium is recommended for fungal susceptibility tests: RPMI 1640, with glutamine, and without bicarbonate and with a pH indicator (Oxoid), supplemented with 1% glucose.25 μl of a 10-fold compound concentration is pipetted into each well. To each 25 μl test compound 225 μl of growth media was added. As measurement tool for the antibacterial and anti-yeast screenings, the area under the growth curve is used, which is automatically determined via the Biolink software. For the screenings against the pathogenic moulds we used endpoint OD-measurement. For internal quality control, reference antibiotics for each micro-organism are incorporated in the set-up of the tests.

[14] = test system: E. faecalis ATCC 29212; experiment: antibacterial microdilution screening; type: cell-based, Enterococcus faecalis; details: 16 hours at 35° C., Mueller-Hinton broth
Experimental: as §3

[15] = test system: E. coli ATCC 25922; experiment: antibacterial microdilution screening; type: cell-based, Escherichia coli; details: 16 hours at 35° C., Mueller-Hinton broth
Experimental: as §3

[16] = test system: P. aeruginosa ATCC 27853; experiment: antibacterial microdilution screening; type: cell-based, Pseudomonas aeruginosa; details: 16 hours at 35° C., Mueller-Hinton broth
Experimental: as §3

[17] = test system: C. albicans ATCC 24433; experiment: antifungal microdilution screening; type: cell-based, Candida albicans; details: 24 hours at 35° C., RPMI 1640
Experimental: as §3

[18] = test system: C. neoformans ATCC 90112; experiment: antifungal microdilution screening; type: cell-based, Cryptococcus neoformans; details: 48 hours at 35° C., RPMI 1640
Experimental: as §3

[19] = test system: T. mentagrophytes ATCC 9533; experiment: antifungal microdilution screening; type: cell-based, Trichophyton mentagrophytes; details: 5 days at 30° C., RPMI 1640
Experimental: as §3

[20] = test system: A. fumigatus ATCC 2895; experiment: antifungal microdilution screening; type: cell-based, Aspergillus fumigatus; details: 3 days at 30° C., RPMI 1640
Experimental: as §3

[21] = test system: L1210/0, FM3A/0, Molt4/C8 and CEM/0; experiment: anti-tumor screening, verdict over all tested cell-lines; type: cell-based
[22] = test system: VZV OKA; type: cell-based, varicella zoster virus

Structure (SMILES)	EC50 HIV-1 (IIIB) (CEM) [1] [µg/mL]	EC50 HIV-2 (ROD) (CEM) [2] [µg/mL]	EC50 HSV-1 (KOS) (E6SM) [3] [µg/mL]	EC50 HSV-2 (G) (E6SM) [4] [µg/mL]	EC50 VV (E6SM) [5] [µg/mL]	EC50 CMV Davis, AD-169 (HEL) [6] [µg/mL]	anti-viral activity against BVDV (in words) [7]	MTC (μg/ml) MDBK [8]	IC50 CEM/0 [9] [µg/mL]	IC50 FM3A/0 [10] [µg/mL]	IC50 L1210/0 [11] [µg/mL]	IC50 Molt4/C8 [12] [µg/mL]	MIC S. aureus ATCC 29213 [13] [µg/mL]	MIC E. faecalis ATCC 29212 [14] [µg/mL]	MIC E. coli ATCC 25922 [15] [µg/mL]	MIC P. aeruginosa ATCC 27853 [16] [µg/mL]	MIC C. albicans ATCC 24433 [17] [µg/mL]	MIC C. neoformans ATCC 90112 [18] [µg/mL]	MIC T. mentagrophytes ATCC 9533 [19] [µg/mL]	MIC A. fumigatus ATCC 2895 [20] [µg/mL]	also measured
CCCOC1C(Cc2ccccc2)OC2COC(c3ccccc3)OC2C1OCCC (stereo not shown) [Compound A1]	>20	>4	>16	>16	>16	>20	significant anti-viral activity	>100/>100/>100 μg/ml	>200	>200	>200	>200	>25	>25	>25	>25	>25	>25	>25	>25	anti-tumor activity against all tested cell-lines (in words) [21]: No anti-tumor activity
NC(=O)c1ncn([C@@H]2O[C@H](CO)[C@@H](O)[C@H]2O)n1 [Ribavirin, reference compound]																					EC50 ([7]; Bovine viral diarrhea virus isolates and strains, strain Pe515, MDBK cells, MTS method, values separated by / are independent experiments, read-out: EC50 (μg/ml) BVDV): 40 µg/mL (≈ 164 µM)
CC(C)OC1C(c2ccccc2)OC2COC(c3ccccc3)OC2C1OC(C)C (stereo not shown) [Compound A3]	>20	>4	>8	>8		>5	significant anti-viral activity	>100 µg/mL					>25	>25	>25	>25	>25	>25	>25	>25	EC50 VZV (HEL) OKA ([22]; VZV-induced plaque formation, human embryonic lung HEL cell cultures, OKA strain): 1.1 µg/mL (≈ 2.67 µM); activity against VZV (in words) ([22]; first set of screenings): showed activity against VZV; EC50 (μg/ml) BVDV ([7]; strain Pe515, MDBK cells, MTS method, values separated by / are independent experiments): < 0.8 µg/mL
CCCCOC1C(Cc2ccccc2)OC2COC(c3ccccc3)OC2C1OCCCC (stereo not shown) [Compound A2]	>20	>20	>16	>16	>16	>20	moderate activity	>100/>100/>100 μg/ml	27 ± 2 (≈ 59.4 µM)	22 ± 0 (≈ 48.4 µM)	82 ± 7 (≈ 180 µM)	19 ± 1 (≈ 41.8 µM)	>25	>25	>25	>25	>25	>25	>25	>25	anti-tumor activity against all tested cell-lines (in words) [21]: moderate anti-tumor activity
